Source: patent publication US6750348B1, “Chemokine receptor binding heterocyclic compounds” (AnorMED, Inc., priority 1999, dated 2004)

How the values were obtained:
Assay type in all cases: cell-based
[1] = test system: RANTES induced Ca flux in U87.CCR5 cells; assay: Inhibition of RANTES induced Ca flux in U87.CCR5 cells (FLIPR); details: U-87-CCR5, at 20 μg/mL, read-out: inhibited RANTES induced Ca flux
Method: Loading dye: Fluo-3, AM (Molecular Probes F-1241) is dissolved in anhydrous DMSO and stored frozen in aliquots. To increase the solubility of the dye in the loading medium, 10% (w/v) pluronic acid (Molecular Probes F-127) is added to the Fluo-3 stock solution immediately before use.
HBSS+20 mM Hepes buffer+0.2% BSA, pH 7.4. HBSS 10× [(w/o phenol red and sodium bicarbonate (Gibco 14 065-049)]; Hepes buffer 1M (Gibco 15 630-056), BSA (Sigma A3675). The flux buffer is vacuum-filtered and stored refrigerated for a maximum of 5 days. Before use in the experiment, the buffer is warmed at 37° C. in a waterbath.
The test compounds were diluted in flux buffer and added to 4 wells of a black microplate (4 parallel measurements per compound).
The chemokines are diluted in flux buffer to concentrations that are 4-fold higher than the desired concentrations required for stimulation of the cells (i.e. 2.5 nM for SDF-1α and 0.6 nM for RANTES). The chemokines were added to untreated 96-well Sero well compound plates (International Medical, Sterilin code 611F96). In the negative control well's (baseline monitoring), flux buffer is added instead of chemokine. As a positive control to check for dye loading efficiency, 20 μM digitonin (final concentration) was also included. The agonist plate was incubated in the FLIPR (37° C.) for 15-30 min.
The FLIPR settings (camera exposure time and laser power) are adjusted to obtain initial fluorescence values between 8,000 and 10,000 units. After monitoring a 20 second-baseline, the agonist (chemokine) (50 μL) is added by automatic pipettor with black pipette tips. Fluorescence is measured simultaneously in all wells of the microplate every 2 seconds (first 2 min) and thereafter every 6 seconds (additional 2 min). The average ca-flux measured in each set of 4 identical wells (one test compound) was calculated by the FLIPR software.
U87.CCR5 cells were seeded into the black microplates (Costar 3603) on the day before the experiment. The culture medium was removed from the cells and 100 μL of loading medium (DMEM+10% FBS+4 μM Fluo-3, AM) was added to each well and the plate was incubate at 37° C. for 45 min. The loading medium was then removed an the cells were washed twice with flux buffer using the CELL WASH microplate washer (Labsystems) followed by incubation in flux buffer for 10 min. at room temperature (the washing procedure was repeated twice). Finally, the wash buffer was removed from the microplate wells and 150 μL of the test compound, diluted in flux buffer to the desired concentration. The microplate was then incubated in the FLIPR drawer for 10 min. prior to testing. Measurements were performed as described above.
The compounds of the current invention were tested for inhibition of RANTES induced Ca flux in U87.CCR5 cells.

HIV-1 NL4.3 or IIIB = assay: Inhibition of HIV-1 (NL4.3 or IIIB) replication in MT-4 cells (MTT); details: Human immunodeficiency virus 1, IIIB, MT4, read-out: EC50, inhibition of HIV-1 NL4.3 or IIIB replication
Summary of the method: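 CXCR4-tropic virus infected MT-4 cells at MOI 0.01 (100× CCID50) across a range of compound concentrations, with cytotoxicity run in parallel. Viable cells counted by MTT after 5 days. EC50 is the concentration protecting 50% of infected cells from viral cytopathicity.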

HIV-1 BaL (CCR5 using) = assay: Inhibition of HIV-1 (BaL) replication in PHA-stimulated PBMC's (MTT); details: Human immunodeficiency virus 1, BAL, MTT assay
Method: Compounds were tested for their ability to inhibit HIV-1 replication in MT-4 cells or PBMC's (peripheral blood mononucleocytes) using published procedures (for example, see: Labrosse et al. J. Virol. 1998, 6381-6388; Simmons et al. J. Virol. 1998, 8453-8457; Donzella et al. Nature Medicine 1998, 72-77; Schols et al. J. Exp. Med. 1997, 1383-1388; De Clercq et al. Antiviral Res. 1997, 147-156; and Bridger et al. U.S. patent application Ser. No. 09/111,895). In addition to the above references, experimental methods for performing anti-viral assays can also be found in: Bridger et al. J. Med. Chem. 1995, 38, 366-378; Bridger et al. J. Med. Chem. 1996, 39, 109-119; Bridger et al. U.S. Pat. No. 5,698,546; Bridger et al. U.S. Pat. No. 5,583,131; Bridger et al. U.S. Pat. No. 5,817,807; De Clercq et al. Antimicrob. Agents and Chemother. 1994, 38, 668-674.
The HIV-1 strain BaL is M-tropic (macrophage tropic) strain that exclusively uses CCR5 as a co-receptor for entry into cells. PBMC's (from healthy donors) express all chemokine receptors including CXCR4 and CCR5.

[2] = test system: SDF-1α induced Ca flux in SUP-T1 cells; assay: Inhibition of SDF-1α induced Ca flux in SUP-T1 cells (FLIPR); details: Homo sapiens, at 20 μg/mL, read-out: inhibited SDF-1α induced Ca flux

SMILES | inhibition at 20 µg/mL [1] [%] | EC50 (HIV-1 NL4.3 or IIIB) [µg/mL] | EC50 (HIV-1 BaL (CCR5 using)) [µg/mL] | inhibition at 20 µg/mL [2] [%]
N[C@@H]1CCC[C@H]1N(Cc1ccc(CNCc2ccccn2)cc1)C1CCCc2cccnc21 (relative stereo) [Example 71, N-(2-pyridinylmethyl)-N′-(trans-2-aminocyclopentyl)-N′-(5,6,7,8-tetrahydro-8-quinolinyl)-1,4-benzenedimethanamine] | > 20 | < 20 | < 20 | 
c1ccc(CNCc2ccc(CNc3cccc4ccccc34)cc2)nc1 [Example 5, N-(2-pyridinylmethyl)-N′-(1-naphthalenyl)-1,4-benzenedimethanamine] | > 20 |  | < 20 | 
c1ccc(-c2ccc3c(n2)C(NCc2ccc(CNCc4ccccn4)cc2)CCC3)cc1 (stereo not drawn) [Example 11, N-(2-pyridinylmethyl)-N′-(2-phenyl-5,6,7,8-tetrahydro-8-quinolinyl)-1,4-benzenedimethanamine] | > 20 | < 20 | < 20 | 
c1ccc(CNCc2ccc(CN(Cc3ccco3)C3CCCc4cccnc43)cc2)nc1 (stereo not drawn) [Example 29, N-(2-pyridinylmethyl)-N′-[2-furanylmethyl]-N′-(5,6,7,8-tetrahydro-8-quinolinyl)-1,4-benzenedimethanamine] |  | < 20 | < 20 | > 20
c1ccc(CNCCN(Cc2ccc(CNCc3ccccn3)cc2)C2CCCc3cccnc32)cc1 (stereo not drawn) [Example 30, N-(2-pyridinylmethyl)-N′-[2-[(phenylmethyl)amino]ethyl]-N′-(5,6,7,8-tetrahydro-8-quinolinyl)-1,4-benzenedimethanamine] | > 20 | < 20 | < 20 | > 20
CC1c2ccccc2CCC1NCc1ccc(CNCc2ccccn2)cc1 (stereo not drawn) [Example 37, N-(2-pyridinylmethyl)-N′-(1-methyl-1,2,3,4-tetrahydro-2-naphthalenyl)-1,4-benzenedimethanamine] |  | < 20 | < 20 | > 20
Fc1cccc2c1CC(NCc1ccc(CNCc3ccccn3)cc1)CC2 (stereo not drawn) [Example 43, N-(2-pyridinylmethyl)-N′-(8-Fluoro-1,2,3,4-tetrahydro2-naphthalenyl)-1,4-benzenedimethanamine] |  | < 20 | < 20 | > 20
c1ccc(CCN(Cc2ccc(CNCc3ccccn3)cc2)C2CCCc3cccnc32)nc1 (stereo not drawn) [Example 66, N-(2-pyridinylmethyl)-N′-[2-(2-pyridinyl)ethyl]-N′-(5,6,7,8-tetrahydro-8-quinolinyl)-1,4-benzenedimethanamine] |  | < 20 | < 20 | > 20
c1ccc(CNCc2ccc(CN(Cc3ccccn3)CC3CCCc4cccnc43)cc2)nc1 (stereo not drawn) [Example 88, N,N′-bis(2-pyridinylmethyl)-N′-[(5,6,7,8-tetrahydro-8-quinolinyl)methyl]-1,4-benzenedimethanamine] |  | < 20 | < 20 | > 20
